Source: patent publication US6043283A, “Tyramine compounds and their neuronal effects” (priority 1997, dated 2000)
“Also recorded” adds a separate entry of the source. Read-outs that look alike come from different tables or passages of the source.

Assays:
human microglia [1] = test: induction of neuron-killing human microglia; assay type: cell-based; settings: 1 μmole/liter synthetic peptides
microglia = test: inhibition of SpheresAβ1-42 binding to microglia; parameters: species or system rat; settings: 10 μmoles/l, 4 hours, 37° C.
Method: Spheresmal-BSA (which bind to scavenger receptors) or SpheresAβ1-42 were incubated with microglia for 4 hours following pre-treatment of cells with trypsin (5000 units/ml at 37° C. for 60 min followed by inactivation with soybean trypsin inhibitor), with heparinase (heparin lyase EC 4.2.2.7; two consecutive treatments each of 0.01 units/ml for 60 min), or with chondroitinase ABC (chondroitin ABC lyase EC 4.3.3.4; two consecutive treatments each of 0.02 units/ml for 60 min). […] Microglia mixed with hippocampal neurons were treated with combinations of β-D-xyloside (1 mm), heparinase (0.02 units/ml), or chondroitinase (0.04 units/ml) and then exposed to plaques.
Each well then received 250,000 SpheresAβ1-42 or Spheresmal-BSA in the presence or absence of Aβ peptides, GAGs, or scavenger receptor ligands. Binding assays were carried out at 37° C. for 4 hours after which coverslips were dipped 10 times in phosphate buffer and fixed with 4% buffered paraformaldehyde. Microsphere adherence to cells was scored at 200 magnification with phase/fluorescence microscopy. Data, expressed as % inhibition of sphere binding, was calculated from total number of spheres per field noted for control cultures receiving spheres only. Values are based upon at least 3 coverslips from 2 independent experiments. […] Washed spheres were resuspended in 0.2 M borate buffer (pH 8.5) in the presence of 300 μg Aβ or 400 μg BSA in 6% DMSO. After overnight mixing at room temperature, the spheres were washed extensively and blocked by 1 M glycine (pH 8.0) for 30 minutes.

[2] = tested on: Aβ1-42-stimulated microglia; assay type: cell-based, rat; settings: for blocking of Aβ1-42 induced microglial neurotoxicity by peptides: 10 μmoles/liter peptide, 1 μmole/liter Aβ1-42
Outline: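 E18 rat hippocampal cultures, microglia depleted with saporin–ac-LDL (10 μg/ml, 12 h) on day 14, then given test substances at 10μM with or without exogenous microglia (100,000 cells) for 72 h. Neurons immunostained (NF plus MAP-2) and nuclei counted by fluorescence microscopy; survival expressed as % of parallel untreated controls.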

hippocampal neurons = assay type: cell-based, rat; settings: absence of microglia
rat microglia [3] = assay type: binding; settings: 6 hours, 37° C.
Method: Synthetic Aβ peptides were linked to Sepharose beads (Pharmacia) in coupling buffer (0.1 M NaHCO3, 0.5 M NaCl, pH 8.3) containing 20% DMSO. This solution was combined with an appropriate volume of CNBr-activated Sepharose 4B (10 mg protein per ml of bead; Pharmacia protocol) and mixed overnight on a platform mixer at room temperature. Remaining active groups on the beads were blocked by 1.0 M glycine and excess uncoupled peptides removed from this bead-peptide complex by washing with three cycles of alternating pH (0.1 M acetate buffer, pH 4.0, followed by 0.1 M Tris-HCL buffer, pH 8.0, each buffer containing 0.5 M NaCl). Coupled beads (10^4 per ml) were placed in 35 mm culture dishes covered with 250,000 adhering microglia at 37° C. in 1.5 ml N2 medium in accordance with the procedure of Giulian et al., 1995a. The numbers of microglia which detached from the plate and bound to coupled beads were determined at the end of a 6 hour incubation period by inverted phase microscopy with 100 beads scored from each of three sister cultures. Glycine and bovine serum albumin (BSA) coupled beads were used as controls.

[4] = assay type: physicochemical; settings: chemically defined culture media, 37° C.; Table 2
From the text: Solubility of peptides is described for chemicallydefined culture media a […]

[5] = tested on: rat microglia / hippocampal neurons; settings: for induction of neurotoxic microglia / neuron killing: rat microglia, mostly 1 μmole/l; for neuron loss with conditioned media from microglia: 10% vol/vol conditioned media, microglia with 1 μmole/l peptide; for killing of neurons: rat, hippocampal neurons, 72 h, 1 µM
[6] = tested on: NTox released by Aβ1-42-stimulated microglia (neuron killing); test: cells; assay type: cell-based, rat; settings: 72 hours; FIG. 30 experiment
rat microglia [7] = test: binding of Aβ-coupled microspheres to microglia; settings: 4 hours at 37° C. (72 h in FIG. 23)
[8] = tested on: reactive microglia in rat neocortex; test: brain inflammatory response after infusion into neocortex of adult rat; assay type: in vivo; settings: 0.5 nmoles Aβ1-42, co-infusion of 1.0 nmole peptide; 5 days
human microglia [9] = test: nitrite/nitrate production, human microglia; assay type: cell-based
Method: Nitrites and nitrates, stable byproducts of nitric oxide synthetase (NOS) served as markers for nitric oxide (NO) synthesis (Ignarro, 1990). […]; for 24 to 72 hours incubated in the presence of neuritic/core plaques or Aβ peptides) were measured by the Griess method set forth by Beckman et al., 1990 against a standard curve ranging from 0.1 to 50.0 μM nitrate.

rat microglia [10] = test: microglial morphology / reactivity; assay type: cell-based
Method: Equal amounts of plaque protein (normalized to total amine content at 400 μmoles/l) were added to neuronal cultures in the presence (100,000 cells per culture) or absence of rat microglia. […] The chromatogram was developed with 80% glass distilled formic acid at a flow rate of 0.3 ml per minute and monitored at 280 nm.
Bright field photomicrographs of rat microglia cultures exposed to peak S1 (FIG. 20A) or peak S5 (FIG. 20B) and immuno-stained for the presence of Aβ.
FIGS. 22A-F depict cellular responses upon exposure to synthetic Aβ peptides. […] Bar=25 microns.

[11] = tested on: scavenger receptor II mRNA / microglia; test: microsphere implants in brain neocortex: reactive microglia and scavenger receptor mRNA; assay type: in vivo
From the text: FIGS. 7A, B, and C show SpheresAβ1-42 in vivo. […]. […] Microglia were visualized by uptake of fluorescent labeled acetylated LDL, DiI-ac-LDL Bar=40 μm, FIG. 7A; 25 μm FIG. 7B and C.

| Substance | induction of neurotoxic human microglia (human microglia [1]) | inhibition of SpheresAβ1-42 binding by peptides (microglia) | blocking of Aβ1-42 induced microglial neurotoxicity by peptides [2] | microglial adherence to coupled Sepharose beads (rat microglia [3]) | Solubility [4] | binding of peptide-coupled microspheres to microglia (rat microglia [7]) | microglial morphology / reactivity (rat microglia [10]) | neuron loss with conditioned media from microglia [5] | killing of neurons [5] | other results |
| --- | --- | --- | --- | --- | --- | --- | --- | --- | --- | --- |
| Aβ1-28: Aβ peptide residues 1-28 | inactive | effectively prevented | blocked neurotoxin production | promoted cell binding; also recorded: promoted bead binding | soluble | – | – | – | – | IC50 ([2]; read-out: ED50 (blocking of Aβ1-42 induced neurotoxicity), FIG. 16B): 250 nM; direct neurotoxicity without microglia (hippocampal neurons): did not produce neurotoxicity; induction of neurotoxic microglia / neuron killing ([5]; listed as 1-28): inactive |
| Aβ1-42: synthetic human β-amyloid peptide 1-42 | very potent inducers of neurotoxic human microglia; also recorded: stimulated release of neurotoxin from human microglia | – | – | anchored to beads; also recorded: provided an anchoring site for microglia | very insoluble | marked glial binding; also recorded: readily bind; also recorded: readily engulfed by microglia | morphological changes with retraction of processes | Significant neuron loss occurred | 70-80% | neurons destroyed by Aβ-stimulated microglia [6]: about 65%; local brain inflammatory response [8]: produces an inflammatory response; release of nitrate or nitrite, human microglia (human microglia [9]): did not bring about release of nitrate or nitrites; neuron killing, microglia separated from neurons (no contact) [5]: stimulated microglia to destroy neurons; neuron killing ([5]; 100 nmoles/liter, rat microglia 500 cells per mm^2): destroyed nearly all neurons; neuron kill ([5]; "aged" Aβ1-42): 77.5%±2.6%; neuron kill ([5]; fresh Aβ1-42): 75.1%±5.8%; induction of neurotoxic microglia / neuron killing ([5]; listed as 1-42): induced toxic effects |
| Aβ17-43: Aβ peptide residues 17-43 (LVFFAEDVGSNKGAIIGLMVGGVVIAT; Amyloid-beta protein 42; UniProt P05067 688-714, looked up, fragment) | inactive | did not | did not | – | – | – | does not alter microglial morphology | undamaged | – | – |
| SpheresAβ1-42: Aβ1-42 coupled to (fluorescent) microspheres | – | – | – | – | – | rapidly engulfed by cultured microglia | – | – | 70-80% | binding of peptide-coupled microspheres to microglia (rat microglia [7]; listed as Aβ1-42-spheres): localized specifically within DiI-ac-LDL(+) microglia; binding of peptide-coupled microspheres to microglia (rat microglia [7]; listed as Aβ1-42 coupled-microspheres): readily taken up by microglia; increase in scavenger receptor mRNA vs undamaged tissue or SphereBSA ([11]; two weeks after implantation): 5 fold; reactive microglia around implanted spheres ([11]; weeks after implantation): chronically stimulate the presence of reactive cells; induction of neurotoxic microglia / neuron killing [5]: induced neuron killing |
